This is an account of results in PubChem BioAssay AID256 (DTP/NCI, 2004).

The assay has as its system CD2F1 mice, L1210 leukemia ip, survival T/C. As to the kind of experiment: NCI In Vivo Anticancer Drug Screen. Data for tumor model L1210 Leukemia (intraperitoneal) in CD2F1 (CDF1) mice. Particulars: higher = longer survival. In a few lines: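 Activity against a transplanted murine tumor was judged by comparing the compound group with a vehicle group. The outcome in the treated animals was divided by that in the controls.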

Setting [1] is: endpoint: mean survival time, dose: 100.0 mg/kg/injection, schedule: Q04DX003 (ip), vehicle: saline with Tween-80.
[2] abbreviates: endpoint: mean survival time, dose: 200.0 mg/kg/injection, schedule: Q04DX003 (ip), vehicle: saline with Tween-80.
Where [3] appears, read: endpoint: mean survival time, dose: 400.0 mg/kg/injection, schedule: Q04DX003 (ip), vehicle: saline with Tween-80.
[4] abbreviates: endpoint: mean survival time, dose: 100.0 mg/kg/injection, schedule: Q01DX001 (ip), vehicle: saline with Tween-80.
[5] abbreviates: endpoint: mean survival time, dose: 200.0 mg/kg/injection, schedule: Q01DX001 (ip), vehicle: saline with Tween-80.
The mark [6] stands for this setting: endpoint: mean survival time, dose: 400.0 mg/kg/injection, schedule: Q01DX001 (ip), vehicle: saline with Tween-80.
[7] abbreviates: endpoint: mean survival time, dose: 100.0 mg/kg/injection, schedule: Q01DX009 (ip), vehicle: saline.
The mark [8] stands for this setting: endpoint: mean survival time, dose: 50.0 mg/kg/injection, schedule: Q01DX009 (ip), vehicle: Klucel (hydroxypropylcellulose) (HPC).
The mark [9] stands for this setting: endpoint: mean survival time, dose: 100.0 mg/kg/injection, schedule: Q01DX009 (ip), vehicle: Klucel (hydroxypropylcellulose) (HPC).
Setting [10] is: endpoint: mean survival time, dose: 200.0 mg/kg/injection, schedule: Q01DX009 (ip), vehicle: Klucel (hydroxypropylcellulose) (HPC).

Where “and” joins values, the source holds several entries; their conditions need not be identical. Equal entries are not always repeated. Inconclusive results and toxic doses are left out.

With `O=NN(CCBr)C(=O)Nc1ccccc1`, the T/C is 150 % of control (endpoint: mean survival time, dose: 9.0 mg/kg/injection, schedule: Q01DX Z (ip), vehicle: carboxymethylcellulose (CMC)); 162 % of control (endpoint: mean survival time, dose: 18.0 mg/kg/injection, schedule: Q01DX Z (ip), vehicle: carboxymethylcellulose (CMC)); 158 % of control (endpoint: mean survival time, dose: 25.0 mg/kg/injection, schedule: Q01DX Z (ip), vehicle: carboxymethylcellulose (CMC)); 183 % of control (endpoint: mean survival time, dose: 37.0 mg/kg/injection, schedule: Q01DX Z (ip), vehicle: carboxymethylcellulose (CMC)); 115 % of control (endpoint: mean survival time, dose: 75.0 mg/kg/injection, schedule: Q01DX Z (ip), vehicle: carboxymethylcellulose (CMC)); 103 % of control (endpoint: mean survival time, dose: 100.0 mg/kg/injection, schedule: Q01DX Z (ip), vehicle: carboxymethylcellulose (CMC)). Also, under “endpoint: mean survival time, dose: 150.0 mg/kg/injection, schedule: Q01DX Z (ip), vehicle: carboxymethylcellulose (CMC)”, the T/C was 90 % of control.
Turning to `O=C1C2C3C=CC(O3)C2C(=O)N1O` (configuration not stated), the T/C was 97 % of control (endpoint: mean survival time, dose: 12.5 mg/kg/injection, schedule: Q01DX009 (ip), vehicle: water) and 96 % of control (endpoint: mean survival time, dose: 25.0 mg/kg/injection, schedule: Q01DX009 (ip), vehicle: water).
Regarding `CO[C@@H](C=O)O[C@@H](C=O)CO`, the T/C is, setting by setting: (endpoint: mean survival time, dose: 70.0 mg/kg/injection, schedule: Q01DX001 (ip), vehicle: saline) 121 % of control; (endpoint: mean survival time, dose: 140.0 mg/kg/injection, schedule: Q01DX001 (ip), vehicle: saline) 121 % of control.
Regarding `CC1(C)COCN1COC1CCCCC1`, the T/C by setting is: (endpoint: mean survival time, dose: 12.5 mg/kg/injection, schedule: Q01DX009 (ip), vehicle: suspension in saline) 95 % of control; (endpoint: mean survival time, dose: 25.0 mg/kg/injection, schedule: Q01DX009 (ip), vehicle: suspension in saline) 100 % of control; (endpoint: mean survival time, dose: 50.0 mg/kg/injection, schedule: Q01DX009 (ip), vehicle: suspension in saline) 103 % of control; (endpoint: mean survival time, dose: 100.0 mg/kg/injection, schedule: Q01DX009 (ip), vehicle: suspension in saline) 108 % of control; (endpoint: mean survival time, dose: 200.0 mg/kg/injection, schedule: Q01DX009 (ip), vehicle: suspension in saline) 105 % of control.
In the case of `CC(=O)NC1CCCC(C)C1` (configuration not stated), the T/C reads like this: under setting [1], 96 % of control; under setting [2], 96 % of control; under setting [3], 96 % of control.
For `Cc1cc(CC(O)(C(F)(F)Cl)C(F)(F)Cl)cc(C)n1`, the T/C under setting [1] was 95 % of control, the T/C under setting [2] was 92 % of control and the T/C under setting [3] is 90 % of control.
For the molecule `CC(=O)c1ccc2c([N+](=O)[O-])ccc3c2c1CC3`, the T/C under setting [4] was 97 % of control, the T/C under setting [5] is 91 % of control and the T/C under setting [6] was 94 % of control.
As to `Cc1ccc(S(=O)(=O)SC(F)(F)F)cc1`, the T/C by setting is: (endpoint: mean survival time, dose: 5.0 mg/kg/injection, schedule: Q01DX001 (ip), vehicle: saline) 106 % of control; (endpoint: mean survival time, dose: 10.0 mg/kg/injection, schedule: Q01DX001 (ip), vehicle: saline) 104 % of control.
With `Cc1nc2c(c(-c3ccccc3)n1)Cc1ccccc1O2`, the T/C is 98 % of control (endpoint: mean survival time, dose: 100.0 mg/kg/injection, schedule: Q01DX001 (ip), vehicle: saline); 98 % of control (endpoint: mean survival time, dose: 200.0 mg/kg/injection, schedule: Q01DX001 (ip), vehicle: saline); 101 % of control (endpoint: mean survival time, dose: 400.0 mg/kg/injection, schedule: Q01DX001 (ip), vehicle: saline).
Consider `CC(=O)ON(C(C)=O)c1ccc(S(=O)(=O)c2ccc(N(OC(C)=O)C(C)=O)cc2)cc1`, for which the T/C is, setting by setting: under setting [7], 92 % of control; (endpoint: mean survival time, dose: 200.0 mg/kg/injection, schedule: Q01DX009 (ip), vehicle: saline) 90 % of control; (endpoint: mean survival time, dose: 400.0 mg/kg/injection, schedule: Q01DX009 (ip), vehicle: saline) 89 % of control.
`CC(=O)OCC1OC(OC(C)=O)C(On2nnc3c(-c4ccccc4)c(C)nn32)C(OC(C)=O)C1OC(C)=O` (configuration not stated): the T/C (endpoint: median survival time, dose: 12.5 mg/kg/injection, schedule: Q01DX005 (ip), vehicle: Klucel (hydroxypropylcellulose) (HPC)) was 93 % of control; the T/C (endpoint: median survival time, dose: 25.0 mg/kg/injection, schedule: Q01DX005 (ip), vehicle: Klucel (hydroxypropylcellulose) (HPC)) was 95 % of control; the T/C (endpoint: median survival time, dose: 50.0 mg/kg/injection, schedule: Q01DX005 (ip), vehicle: Klucel (hydroxypropylcellulose) (HPC)) is 97 % of control; the T/C (endpoint: median survival time, dose: 100.0 mg/kg/injection, schedule: Q01DX005 (ip), vehicle: Klucel (hydroxypropylcellulose) (HPC)) was 95 % of control.
Consider `OC(c1ccccc1Cl)C(Cl)(Cl)Cl` (configuration not stated), for which the T/C under setting [8] was 96 % of control, the T/C under setting [9] was 93 % of control and the T/C under setting [10] is 104 % of control.
Consider `COc1cc(/C=C/C=C/C(=O)N2CCCCC2)ccc1O`, for which the T/C was 97 % of control (endpoint: mean survival time, dose: 12.5 mg/kg/injection, schedule: Q01DX009 (ip), vehicle: saline with Tween-80); 100 % of control (endpoint: mean survival time, dose: 25.0 mg/kg/injection, schedule: Q01DX009 (ip), vehicle: saline with Tween-80); 113 % of control (endpoint: mean survival time, dose: 50.0 mg/kg/injection, schedule: Q01DX009 (ip), vehicle: saline with Tween-80).
Consider `Cc1ccc(S(=O)(=O)OCC2OC(n3cnc4c(NC=O)ncnc43)C(OC=O)C2OC=O)cc1` (configuration not stated), for which the T/C reads like this: (endpoint: mean survival time, dose: 25.0 mg/kg/injection, schedule: Q01DX009 (ip), vehicle: saline) 104 % of control; (endpoint: mean survival time, dose: 50.0 mg/kg/injection, schedule: Q01DX009 (ip), vehicle: saline) 102 % of control; under setting [7], 98 % of control.
`C[Si](C)(C)C1([Si](C)(C)C)SCCCS1`: the T/C is, setting by setting: (endpoint: mean survival time, dose: 50.0 mg/kg/injection, schedule: Q01DX009 (ip), vehicle: other) 105 % of control; (endpoint: mean survival time, dose: 100.0 mg/kg/injection, schedule: Q01DX009 (ip), vehicle: other) 105 % of control; (endpoint: mean survival time, dose: 200.0 mg/kg/injection, schedule: Q01DX009 (ip), vehicle: other) 102 % of control.
As to `Cc1nc(N)c2ncn(C3OC(CO)C(O)C3O)c2n1` (configuration not stated), the T/C (endpoint: mean survival time, dose: 100.0 mg/kg/injection, schedule: Q04DX002 (ip), vehicle: saline with Tween-80) was 115 % of control.
With `Brc1cnc(Br)s1`, the T/C (endpoint: mean survival time, dose: 13.0 mg/kg/injection, schedule: Q04DX002 (ip), vehicle: Klucel (hydroxypropylcellulose) (HPC)) is 92 % of control; the T/C (endpoint: mean survival time, dose: 20.0 mg/kg/injection, schedule: Q04DX002 (ip), vehicle: Klucel (hydroxypropylcellulose) (HPC)) is 98 % of control; the T/C (endpoint: mean survival time, dose: 30.0 mg/kg/injection, schedule: Q04DX002 (ip), vehicle: Klucel (hydroxypropylcellulose) (HPC)) was 98 % of control; the T/C (endpoint: mean survival time, dose: 45.0 mg/kg/injection, schedule: Q04DX002 (ip), vehicle: Klucel (hydroxypropylcellulose) (HPC)) is 95 % of control.
For `CCOC(=O)NC1CCc2cc(OC)c(OC)c(OC)c2-c2ccc(OC)c(=O)cc21` (configuration not stated), the T/C is 171 % of control (endpoint: median survival time, dose: 2.5 mg/kg/injection, schedule: Q01DX005 (ip), vehicle: Klucel (hydroxypropylcellulose) (HPC)); 164 % of control (endpoint: median survival time, dose: 3.0 mg/kg/injection, schedule: Q01DX005 (ip), vehicle: Klucel (hydroxypropylcellulose) (HPC)); 179 % of control and 187 % of control (endpoint: median survival time, dose: 5.0 mg/kg/injection, schedule: Q01DX005 (ip), vehicle: Klucel (hydroxypropylcellulose) (HPC)); 107 % of control (endpoint: median survival time, dose: 8.33 mg/kg/injection, schedule: Q01DX005 (ip), vehicle: Klucel (hydroxypropylcellulose) (HPC)).
As for `C=CC[N+]12CC=C(CO)C1C(O)CC2` (configuration not stated), the T/C was 101 % of control (endpoint: mean survival time, dose: 100.0 mg/kg/injection, schedule: Q04DX002 (ip), vehicle: saline); 104 % of control (endpoint: mean survival time, dose: 200.0 mg/kg/injection, schedule: Q04DX002 (ip), vehicle: saline); 97 % of control (endpoint: mean survival time, dose: 400.0 mg/kg/injection, schedule: Q04DX002 (ip), vehicle: saline).
Take `COC(=O)C1=NNC(C(=O)OC)=C(c2ccccc2)C(c2ccccc2)=N1`: the T/C by setting is: (endpoint: mean survival time, dose: 12.5 mg/kg/injection, schedule: Q01DX009 (ip), vehicle: Klucel (hydroxypropylcellulose) (HPC)) 95 % of control; (endpoint: mean survival time, dose: 25.0 mg/kg/injection, schedule: Q01DX009 (ip), vehicle: Klucel (hydroxypropylcellulose) (HPC)) 91 % of control; under setting [8], 98 % of control; under setting [9], 101 % of control; under setting [10], 109 % of control; (endpoint: mean survival time, dose: 400.0 mg/kg/injection, schedule: Q01DX009 (ip), vehicle: Klucel (hydroxypropylcellulose) (HPC)) 114 % of control.
In the case of `CSc1[nH]c2ncnc(Cl)c2c1C#N`, the T/C was 100 % of control (endpoint: mean survival time, dose: 75.0 mg/kg/injection, schedule: Q01DX001 (ip), vehicle: saline) and 94 % of control (endpoint: mean survival time, dose: 150.0 mg/kg/injection, schedule: Q01DX001 (ip), vehicle: saline).
On to `c1ccc(Nc2ccc(N=Nc3nc4ccccc4s3)cc2)cc1`, for which the T/C is, setting by setting: under setting [4], 93 % of control; under setting [5], 97 % of control; under setting [6], 97 % of control.
